Test: Physicochemical parameters of Luc-mRNA-LNP (particle size, PDI, zeta potential, encapsulation efficiency)
Settings: lipid formulation of Table 1
Method: The lipid compound of the present disclosure, neutral lipid (phospholipid), and PEG lipid were dissolved in an ethanol solution according to a specific molar ratio (detailed formulation shown in Table 1). The mRNA was dissolved in a citric acid buffer (pH 4.0) to a final concentration of 135 ng/µL. The LNP mixture and the mRNA dilution were mixed at a volume ratio of 1:3, and mRNA-LNP complexes were prepared using a microfluidic nano-preparation system with a flow rate ratio of 1:3 between the LNP mixture and the mRNA dilution, that is, the LNP volume:the mRNA volume was 1:3. After dilution with a 10× phosphate buffer solution (pH 7.4), ultrafiltration concentration was performed, followed by about 500-fold dilution with solution replacement. An experimental sample was obtained after sterile filtration. Samples were taken and analyzed for average particle size, PDI, and Zeta potential. Table 1: Three-component LNP lipid formulation based on cholesterol cationic lipid compound
Example 13: Preparation, Characterization, and In Vitro Cell Transfection Activity Evaluation of Luc-mRNA-LNP Using luciferase gene Luc-mRNA and referring to the preparation method provided in Example 12 and the lipid formulation provided in Table 1, Luc-mRNA-LNP was constructed, whose encapsulation efficiency, average particle size, PDI, and zeta potential data are shown in Table 2. […]

CCCCCCCCCCCOC(=O)CCCCCN(CCO)CCCCCCCC(=O)OC(CCCCCCCC)CCCCCCCC [SM-102]
Encapsulation efficiency (%): below 15%
